The results in this text go back to patent US9408847B2, “Combination therapy” (Novartis AG, priority 2012, dated 2016).

For this experiment, the system named is MCF7 tumor xenograft. In words: MCF7 tumor xenograft model in vivo. The settings on record: female nude mice. How it is done:
MCF-7 cells were purchased from American Type Culture Collection (ATCC). They were tested free of mycoplasma and viral contamination in the IMPACT VIII PCR assay panel (RADIL, MU Research Animal Diagnostic Laboratory, Columbia, Mo.). They were cultured in EMEM medium (ATCC#30-2003) containing 10% heat inactivated fetal bovine serum, and were at passage 18 for this experiment. Female, nude mice from Harlan (Hsd:Athymic Nude-Foxn1nu) were used in this xenograft study. Mice received 17b-estradiol pellets (0.18 mg/pellet, 90-day release) (Innovative research of America Catalog # NE-121) implanted between the shoulder blades three days before cell implantation. Tumor volume and body weight were monitored throughout the experiment.

Consider `CN(C)C(=O)c1cc2cnc(Nc3ccc(N4CCNCC4)cn3)nc2n1C1CCCC1` [Compound A], for which the T/T0 (monotherapy at 75 mg/kg) is on record as −9%.

Turning to `COC1CC2CC[C@@H](C)[C@@](O)(O2)C(=O)C(=O)N2CCCC[C@H]2C(=O)OC(C(C)C[C@@H]2CCC(OCCO)[C@H](OC)C2)CC(=O)C(C)/C=C(\C)[C@@H](O)C(OC)C(=O)[C@H](C)CC(C)/C=C/C=C/C=C/1C` (stereo in doubt) [Compound B, (1R,9S,12S,15R,16E,18R,19R,21R,23S,24E,26E,28E,30S,32S,35R)-1,18-dihydroxy-12-{(1R)-2-[(1S,3R,4R)-4-(2-hydroxyethoxy)-3-methoxycyclohexyl]-1-methylethyl}-19,30-dimethoxy-15,17,21,23,29,35-hexamethyl-11,36-dioxa-4-aza-tricyclo[30.3.1.04,9]hexatriaconta-16,24,26,28-tetraene-2,3,10,14,20-pentaone], the T/T0 (monotherapy at 5 mg/kg) is on record as −21%.
